Tests used:
Type in all cases: biochemical
[1] = target: JAK1 (Homo sapiens, UniProt P23458); assay: JAK kinase activity, homogeneous time-resolved fluorescence (JAK1 reaction system); details: ATP 2 μM, JAK1 protein 0.2 ng/μL; read-out: JAK 1 activity
Outline: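 Kinase activity read as the 665 nm/615 nm time-resolved fluorescence ratio (320 nm excitation) after EDTA-containing antibody and XL-615 addition. Reaction ran 1 h at pH 7.0 (Hepes, MgCl2, DTT) with 0.2 ng/μL JAK1 and ATP at 2 μM. IC50 derived by Hill-slope fit.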

[2] = target: TYK2 (Homo sapiens, UniProt P29597); assay: JAK kinase activity, homogeneous time-resolved fluorescence (TYK2 reaction system); details: ATP 2 μM, TYK2 protein 0.2 ng/μL; read-out: TYK 2 activity
Outline: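 Activity read as the 665 nm/615 nm ratio after adding EDTA-containing detection mix with anti-phospho-substrate antibody and XL-615. Beforehand, 0.2 ng/μL TYK2, 2 μM ATP, substrate and compound reacted 1 h in pH 7.0 Hepes buffer with MgCl2 and DTT. IC50 fitted with Hill-slope equation.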

[3] = target: T1, JAK3 (Homo sapiens, UniProt P52333); assay: JAK kinase activity, homogeneous time-resolved fluorescence (JAK3 reaction system); details: ATP 2 μM, JAK3 protein 0.04 ng/μL; read-out: JAK 3 activity
T1 sequence (P52333 1-1124): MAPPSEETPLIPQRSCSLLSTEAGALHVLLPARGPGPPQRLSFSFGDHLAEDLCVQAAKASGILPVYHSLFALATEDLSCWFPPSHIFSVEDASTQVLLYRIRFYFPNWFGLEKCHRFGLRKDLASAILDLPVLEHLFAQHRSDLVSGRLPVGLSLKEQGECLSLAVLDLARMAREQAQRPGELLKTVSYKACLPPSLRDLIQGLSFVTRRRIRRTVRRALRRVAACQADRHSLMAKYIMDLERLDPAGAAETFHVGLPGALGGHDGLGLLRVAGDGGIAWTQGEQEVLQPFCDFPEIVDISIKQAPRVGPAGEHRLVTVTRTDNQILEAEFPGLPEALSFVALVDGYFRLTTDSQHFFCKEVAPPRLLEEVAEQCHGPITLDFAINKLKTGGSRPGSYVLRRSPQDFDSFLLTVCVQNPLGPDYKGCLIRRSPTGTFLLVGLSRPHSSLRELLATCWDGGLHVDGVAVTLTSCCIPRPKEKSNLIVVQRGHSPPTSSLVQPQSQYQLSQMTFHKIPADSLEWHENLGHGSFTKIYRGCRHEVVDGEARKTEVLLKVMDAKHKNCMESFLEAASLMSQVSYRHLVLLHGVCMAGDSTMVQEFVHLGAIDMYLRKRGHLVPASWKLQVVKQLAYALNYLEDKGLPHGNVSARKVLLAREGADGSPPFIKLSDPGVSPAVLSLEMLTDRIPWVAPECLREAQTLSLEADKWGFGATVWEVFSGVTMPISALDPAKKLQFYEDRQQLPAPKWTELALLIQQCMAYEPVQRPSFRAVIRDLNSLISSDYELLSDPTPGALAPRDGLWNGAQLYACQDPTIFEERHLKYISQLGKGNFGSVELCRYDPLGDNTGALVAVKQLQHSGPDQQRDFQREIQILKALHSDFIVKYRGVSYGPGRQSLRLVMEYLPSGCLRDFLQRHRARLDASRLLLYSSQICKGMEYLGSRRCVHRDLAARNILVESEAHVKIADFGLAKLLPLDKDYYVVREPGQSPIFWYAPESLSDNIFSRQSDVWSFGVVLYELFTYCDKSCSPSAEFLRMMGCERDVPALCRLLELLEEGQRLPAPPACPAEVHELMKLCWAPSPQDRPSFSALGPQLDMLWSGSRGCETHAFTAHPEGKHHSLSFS

[4] = target: JAK2 (Homo sapiens, UniProt O60674); assay: JAK kinase activity, homogeneous time-resolved fluorescence (JAK2 reaction system); details: ATP 2 μM, JAK2 protein 0.01 ng/μL
Outline: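 IC50 derived by Hill-equation fit of the 665/615 nm time-resolved fluorescence ratio after EDTA-containing detection mix with anti-phosphosubstrate antibody. Preceding 1 h reaction contained 2 μM ATP, 0.01 ng/μL JAK2, substrate, 50 mM Hepes pH 7.0, 5 mM MgCl2, 1 mM DTT.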

JAK1, sequence (P23458 whole entry): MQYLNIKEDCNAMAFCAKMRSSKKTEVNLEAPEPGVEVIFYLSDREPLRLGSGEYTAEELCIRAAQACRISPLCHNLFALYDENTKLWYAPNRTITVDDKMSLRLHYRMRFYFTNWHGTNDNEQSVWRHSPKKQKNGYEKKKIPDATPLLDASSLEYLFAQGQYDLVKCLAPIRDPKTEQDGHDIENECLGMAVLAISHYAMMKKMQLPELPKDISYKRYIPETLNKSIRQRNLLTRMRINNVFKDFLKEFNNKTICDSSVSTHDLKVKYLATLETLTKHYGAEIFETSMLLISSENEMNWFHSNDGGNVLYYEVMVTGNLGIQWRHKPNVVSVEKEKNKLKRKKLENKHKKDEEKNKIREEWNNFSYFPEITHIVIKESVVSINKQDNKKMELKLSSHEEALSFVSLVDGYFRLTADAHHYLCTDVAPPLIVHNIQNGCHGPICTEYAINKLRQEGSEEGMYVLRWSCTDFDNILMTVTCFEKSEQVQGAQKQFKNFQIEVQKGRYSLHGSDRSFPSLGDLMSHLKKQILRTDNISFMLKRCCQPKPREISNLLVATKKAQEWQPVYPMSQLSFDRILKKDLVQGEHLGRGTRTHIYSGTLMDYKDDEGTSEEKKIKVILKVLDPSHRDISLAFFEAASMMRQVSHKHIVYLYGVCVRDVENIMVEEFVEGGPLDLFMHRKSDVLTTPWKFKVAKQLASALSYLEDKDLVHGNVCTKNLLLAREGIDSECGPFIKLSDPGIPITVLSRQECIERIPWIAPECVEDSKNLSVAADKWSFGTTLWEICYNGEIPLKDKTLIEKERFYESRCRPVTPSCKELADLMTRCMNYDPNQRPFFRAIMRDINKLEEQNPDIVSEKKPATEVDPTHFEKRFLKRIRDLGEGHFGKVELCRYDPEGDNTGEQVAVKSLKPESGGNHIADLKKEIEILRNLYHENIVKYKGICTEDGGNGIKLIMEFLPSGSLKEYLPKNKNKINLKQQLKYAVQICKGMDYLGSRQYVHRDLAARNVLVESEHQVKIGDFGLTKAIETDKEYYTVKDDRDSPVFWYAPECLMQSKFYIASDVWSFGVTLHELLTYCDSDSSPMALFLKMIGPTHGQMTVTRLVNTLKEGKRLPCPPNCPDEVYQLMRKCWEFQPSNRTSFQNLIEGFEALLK
TYK2, sequence (P29597 whole entry): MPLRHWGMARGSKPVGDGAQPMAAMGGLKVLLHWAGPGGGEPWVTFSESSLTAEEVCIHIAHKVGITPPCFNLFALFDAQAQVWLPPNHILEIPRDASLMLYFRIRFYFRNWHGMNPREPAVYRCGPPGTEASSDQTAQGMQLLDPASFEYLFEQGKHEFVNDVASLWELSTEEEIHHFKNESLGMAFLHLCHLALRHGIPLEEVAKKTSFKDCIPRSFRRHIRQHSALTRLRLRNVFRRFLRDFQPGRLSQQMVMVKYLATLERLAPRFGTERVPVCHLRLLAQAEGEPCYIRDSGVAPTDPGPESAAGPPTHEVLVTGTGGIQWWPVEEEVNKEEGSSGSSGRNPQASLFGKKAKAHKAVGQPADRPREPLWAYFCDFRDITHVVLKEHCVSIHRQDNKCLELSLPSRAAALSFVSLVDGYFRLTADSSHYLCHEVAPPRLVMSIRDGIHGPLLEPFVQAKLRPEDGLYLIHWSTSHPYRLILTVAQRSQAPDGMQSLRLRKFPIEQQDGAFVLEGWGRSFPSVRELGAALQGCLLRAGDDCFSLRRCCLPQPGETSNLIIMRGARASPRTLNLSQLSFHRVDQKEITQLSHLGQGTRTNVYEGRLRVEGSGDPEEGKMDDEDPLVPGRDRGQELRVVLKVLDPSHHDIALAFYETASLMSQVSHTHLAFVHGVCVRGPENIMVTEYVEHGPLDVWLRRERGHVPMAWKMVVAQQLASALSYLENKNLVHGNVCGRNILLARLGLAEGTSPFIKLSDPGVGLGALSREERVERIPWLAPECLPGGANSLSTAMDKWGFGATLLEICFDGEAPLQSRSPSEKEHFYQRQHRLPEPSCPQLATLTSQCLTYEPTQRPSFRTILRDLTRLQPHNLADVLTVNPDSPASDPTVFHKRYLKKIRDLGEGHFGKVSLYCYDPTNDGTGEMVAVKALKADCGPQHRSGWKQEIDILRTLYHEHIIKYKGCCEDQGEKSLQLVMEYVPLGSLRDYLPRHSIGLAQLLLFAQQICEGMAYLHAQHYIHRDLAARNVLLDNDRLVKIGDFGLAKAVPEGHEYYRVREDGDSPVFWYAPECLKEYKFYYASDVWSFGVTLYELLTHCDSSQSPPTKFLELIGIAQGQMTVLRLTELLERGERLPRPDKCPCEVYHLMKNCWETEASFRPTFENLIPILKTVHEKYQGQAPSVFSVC
JAK2, sequence (O60674 whole entry): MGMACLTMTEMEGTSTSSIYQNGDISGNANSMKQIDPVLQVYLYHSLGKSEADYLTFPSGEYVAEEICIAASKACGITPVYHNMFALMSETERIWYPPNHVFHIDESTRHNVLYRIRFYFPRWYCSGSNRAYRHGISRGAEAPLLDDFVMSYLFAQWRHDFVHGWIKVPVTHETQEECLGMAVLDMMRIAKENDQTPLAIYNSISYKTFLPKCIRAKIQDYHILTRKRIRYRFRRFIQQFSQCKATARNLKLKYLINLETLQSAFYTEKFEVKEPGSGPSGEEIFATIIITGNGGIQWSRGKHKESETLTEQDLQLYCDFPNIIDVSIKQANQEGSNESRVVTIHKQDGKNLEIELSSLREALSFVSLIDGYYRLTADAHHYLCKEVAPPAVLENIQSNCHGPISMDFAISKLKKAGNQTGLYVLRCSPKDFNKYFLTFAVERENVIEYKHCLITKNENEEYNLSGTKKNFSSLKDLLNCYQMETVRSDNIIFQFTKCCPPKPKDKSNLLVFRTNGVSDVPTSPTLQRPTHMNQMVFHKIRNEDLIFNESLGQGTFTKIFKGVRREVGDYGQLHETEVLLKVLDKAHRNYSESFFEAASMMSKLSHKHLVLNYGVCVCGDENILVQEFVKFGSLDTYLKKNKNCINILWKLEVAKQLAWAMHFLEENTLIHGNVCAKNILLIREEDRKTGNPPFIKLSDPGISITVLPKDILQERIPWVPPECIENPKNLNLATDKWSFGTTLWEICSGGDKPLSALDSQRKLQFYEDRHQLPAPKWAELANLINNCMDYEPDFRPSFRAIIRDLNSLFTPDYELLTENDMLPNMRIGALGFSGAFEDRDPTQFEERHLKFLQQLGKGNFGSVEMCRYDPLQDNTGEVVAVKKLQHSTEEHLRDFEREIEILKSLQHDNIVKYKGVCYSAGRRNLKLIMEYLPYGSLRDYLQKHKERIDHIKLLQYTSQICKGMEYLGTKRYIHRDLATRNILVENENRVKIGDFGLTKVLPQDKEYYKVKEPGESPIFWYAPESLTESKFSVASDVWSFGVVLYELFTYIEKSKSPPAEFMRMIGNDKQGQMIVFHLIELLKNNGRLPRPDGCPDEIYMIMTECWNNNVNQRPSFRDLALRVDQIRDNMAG

Structure (SMILES) | IC50 [1] | IC50 [2] | IC50 [3] | IC50 [4]
COc1cccc(F)c1COc1ccc2cc1COCC[C@@H](C)CNC(=O)c1ccc(c(N)c1)-c1ccnc(n1)N2 [Example 186, (R)-1^2-amino-4^4-((2-fluoro-6-meth-oxybenzyl)oxy)-9-methyl-6-oxa-3,11-diaza-2(4,2)-pyrimidina-1(1,4),4(1,3)-dibenzenacyclododecaphan-12-one] | 1000 to 10000 nM | 1000 to 10000 nM | < 10 nM | 101 to 1000 nM
COc1cc(Cl)cc(F)c1COc1ccc2cc1COCCCCNC(=O)c1ccc(c(N)c1)-c1ccnc(n1)N2 [Example 193, 1^2-amino-4^4-((4-chloro-2-fluoro-6-methoxybenzyl)oxy)-6-oxa-3,11-diaza-2(4,2)-pyrimidina-1(1,4),4(1,3)-dibenzenacyclododecaphan-12-one] | 1000 to 10000 nM | 1000 to 10000 nM | 11 to 100 nM | 1000 to 10000 nM
CC1CCOCc2cc(ccc2OCC2CCCC2)Nc2nccc(n2)-c2ccc(cc2N)C(=O)NC1 (stereo not shown) [Example 169, 1^2-amino-4^4-(cyclopentylmethoxy)-9-methyl-6-oxa-3,11-diaza-2(4,2)-pyrimidina-1(1,4),4(1,3)-dibenzena-cyclododecaphan-12-one] | 1000 to 10000 nM | 1000 to 10000 nM | 11 to 100 nM | 101 to 1000 nM
CC1(C)CCOCc2cc(ccc2OC2CCCOC2)Nc2nccc(n2)-c2ccc(cc2N)C(=O)NC1 (stereo not shown) [Example 170, 1^2-amino-9,9-dimethyl-4^4-((tetra-hydroxy-2H-pyran-3-yl)oxy)-6-oxa-3,11-diaza-2(4,2)-pyrimidina-1(1,4),4(1,3)-dibenzenacyclododecaphan-12-one] | 1000 to 10000 nM | 1000 to 10000 nM | 101 to 1000 nM | 1000 to 10000 nM
Cc1ccc2cc1COCCCCNC(=O)c1ccc(c(C)c1)-c1nc(ncc1C)N2 [Example 37, 1^2,2^5,4^4-trimethyl-6-oxa-3,11-diaza-2(4,2)-pyrimidina-1(1,4),4(1,3)-di-benzenacyclododecaphan-12-one] | > 10000 nM | > 10000 nM | 1000 to 10000 nM | > 10000 nM
O=C1Nc2ccc(cc2)OCc2cc(ccc2OCC2CCCOC2)Nc2nccc(n2)-c2ccc1cc2[N+](=O)[O-] (stereo not shown) [Example 212, 1^2-nitro-4^4-((tetrahydro-2H-pyran-3-yl)methoxy)-6-oxa-3,8-diaza-2(4,2)-pyrimidina-1,7(1,4),4(1,3)-tri-benzenacyclononaphane-9-one] | 1000 to 10000 nM | > 10000 nM | 1000 to 10000 nM | 1000 to 10000 nM
Cc1cnc2nc1-c1ccc(cc1)C(=O)NCCCCOCc1cc(ccc1N1CCOCC1)N2 [Example 5, 2^5-methyl-4^4-morpholin-6-oxa-3,11-diaza-2(4,2)-pyrimidina-1(1,4),4(1,3)-dibenzenacyclododecaphan-12-one] | 11 to 100 nM | 11 to 100 nM | 11 to 100 nM | 11 to 100 nM
O=C1NCCCCOCc2cc(ccc2Br)Nc2nccc(n2)-c2ccc1cc2[N+](=O)[O-] [Example 89, 4^4-bromo-1^2-nitro-6-oxa-3,11-diaza-2(4,2)-pyrimidina-1(1,4),4(1,3)-di-benzenacyclododecaphan-12-one] | 1000 to 10000 nM | > 10000 nM | 1000 to 10000 nM | 1000 to 10000 nM
O=C1NCCCCOCc2cc(ccc2N2CCOCC2)Nc2nccc(n2)-c2ccc1cc2F [Example 4, 1^2-fluoro-4^4-morpholin-6-oxa-3,11-diaza-2(4,2)-pyrimidina-1(1,4),4(1,3)-dibenzenacyclododecaphan-12-one] | 1000 to 10000 nM | 101 to 1000 nM | 11 to 100 nM | 101 to 1000 nM
O=C1NCCCCOCc2cc(ccc2N2CCCC2)Nc2nccc(n2)-c2ccc1cc2F [Example 34, 1^2-fluoro-4^4-(pyrrolidin-1-)-6-oxa-3,11-diaza-2(4,2)-pyrimidina-1(1,4),4(1,3)-dibenzenacyclododecaphan-12-one] | 101 to 1000 nM | 1000 to 10000 nM | 11 to 100 nM | 101 to 1000 nM
O=C1NCCCCOCc2cc(ccc2OCc2cccc3c2CCO3)Nc2nccc(n2)-c2ccc1cc2[N+](=O)[O-] [Example 150, 4^4-((2,3-dihydroxybenzofuran-4-yl)methoxy)-1^2-nitro-6-oxa-3,11-diaza-2(4,2)-pyrimidina-1(1,4),4(1,3)-dibenzenacyclododecaphan-12-one] | > 10000 nM | > 10000 nM | 1000 to 10000 nM | > 10000 nM
O=C1NCCCCOCc2cc(ccc2OC2CCCOC2)Nc2nccc(n2)-c2ccc1cc2[N+](=O)[O-] (stereo not shown) [Example 113, 1^2-nitro-4^4-((tetrahydro-2H-pyran-3-yl)oxy)-6-oxa-3,11-diaza-2(4,2)-pyrimidina-1(1,4),4(1,3)-dibenzena-cyclododecaphan-12-one] | 1000 to 10000 nM | > 10000 nM | 101 to 1000 nM | 1000 to 10000 nM
Nc1cc2ccc1-c1ccnc(n1)Nc1ccc(OCC3COC3)c(c1)COc1ccc(cc1)NC2=O [Example 214, 1-amino-4^4-(oxetan-3-ylmethoxy)-6-oxa-3,8-diaza-2(4,2)-pyrimidina-1,7(1,4)4(1,3)-tribenzenacyclonona-phane-9-one] | 1000 to 10000 nM | 1000 to 10000 nM | 11 to 100 nM | 101 to 1000 nM
Nc1cc2ccc1-c1ccnc(n1)Nc1ccc(OCC3CC3)c(c1)COc1ccc(cc1)NC2=O [Example 208, 1^2-amino-4^4-(cyclopropylmethoxy)-6-oxa-3,8-diaza-2(4,2)-pyrimidina-1,7(1,4),4(1,3)-tribenzenecyclo-nonaphane-9-one] | > 10000 nM | > 10000 nM | 11 to 100 nM | 1000 to 10000 nM
O=C1NCCCCOCc2cc(ccc2OCC2Cc3ccccc3C2)Nc2nccc(n2)-c2ccc1cc2[N+](=O)[O-] [Example 122, 4^4-((2,3-dihydro-1H-inden-2-yl)methoxy)-1^2-nitro-6-oxa-3,11-diaza-2(4,2)-pyrimidina-1(1,4),4(1,3)-dibenzenacyclododecaphan-12-one] | > 10000 nM | > 10000 nM | 101 to 1000 nM | > 10000 nM
Nc1cc2ccc1-c1ccnc(n1)Nc1ccc(OC3CCCC3)c(c1)COCCCCNC2=O [Example 88, 1^2-amino-4^4-cyclopentoxy-6-oxa-3,11-diaza-2(4,2)-pyrimidina-1(1,4),4(1,3)-dibenzenacyclododecaphan-12-one] | 101 to 1000 nM | 1000 to 10000 nM | < 10 nM | 11 to 100 nM
O=C1NCCCCOCc2cc(ccc2OC2COC2)Nc2nccc(n2)-c2ccc1cc2[N+](=O)[O-] [Example 72, 1^2-nitro-4^4-(oxetan-3-oxy)-6-oxa-3,11-diaza-2(4,2)-pyrimidina-1(1,4),4(1,3)-dibenzenacyclododecaphan-12-one] | 1000 to 10000 nM | > 10000 nM | 101 to 1000 nM | 1000 to 10000 nM
COc1cnc2nc1-c1ccc(c(F)c1)C(=O)NCCCCOCc1cc(ccc1N1CCOCC1)N2 [Example 58, 1^3-fluoro-2^5-methoxy-4^4-morpholin-6-oxa-3,11-diaza-2(4,2)-pyrimidina-1(1,4),4(1,3)-dibenzenacyclodode-caphan-12-one] | 11 to 100 nM | 101 to 1000 nM | 11 to 100 nM | 11 to 100 nM
CC1CCNC(=O)c2ccc(c(N)c2)-c2ccnc(n2)Nc2ccc(OCC3CCCC3)c(c2)COC1 (stereo not shown) [Example 131, 1^2-amino-4^4-(cyclopentylmethoxy)-8-methyl-6-oxa-3,11-diaza-2(4,2)-pyrimidina-1(1,4),4(1,3)-dibenzena-cyclododecaphan-12-one] | 1000 to 10000 nM | > 10000 nM | 11 to 100 nM | 101 to 1000 nM

— patent US20230203059A1, “MACROCYCLIC JAK INHIBITOR AND USES THEREOF” (Biopolar Hongye (Guangdong) Pharmaceutical Co. Ltd., priority 2020, published 2023)
